{"source": "patent US10329317B2", "about": "“Quinoline derivative for use in the treatment and prevention of viral infections” (ABIVAX, priority 2015, dated 2019)", "key": {"HIV-1 strain YU2": {"system": "HIV-1 strain YU2", "test": "HIV-1 production (p24 ELISA) in infected monocyte derived macrophages", "assay_type": "cell-based", "quoted_text": "HIV-1 strain YU2 was used to infect monocyte derived-macrophages from three different donors (donors 349, 350 and 351; respectively FIGS. 2A, 2B, and 2C panel) in the presence of increasing concentrations of the (glucuronidated) Compound 1, at 1.5 μM, 10 μM and 30 μM. The viral capsid protein p24 antigen was quantitated using standard ELISA protocol (expressed in pg/mL in y-axis). R-10 corresponds to untreated cells. […] To generate monocyte derived macrophages (MDMs), monocytes were isolated using CD14 microbeads (catalog no. 130-050-201; Miltenyi) and cultured in X-VIVO10 medium (Lonza) supplemented with GM-CSF 1000 U/ml and M-CSF 100 ng/ml for 6 days. Monocytes were seeded at a cell count of 50′000 cells per well in a 96 well plate. After 6 days medium was replaced with X-VIVO10 w/o Cytokines. After 2 days Macrophages were treated with Compound (1) o/n and next day infected with Yu-2 virus for 6 hrs, washed with PBS and cultured in medium containing the compounds for 12 days. Supernatant for p24 Elisa was collected 2 times a week. Cells were treated with 1.5 μM up to 30 μM and p24 antigen levels were monitored in culture supernatant over a 12 day period (R-10 corresponds to untreated cells) (FIG. 2)."}, "[1]": {"test": "First-in-man PK: compound (1) plasma levels after single oral ascending dose of compound (2)", "assay_type": "in vivo, human", "conditions": "for AUC(0-t) / AUC(0-inf) / Cmax / half-life / Tmax: male, human, plasma; for AUC(0-t) / AUC(0-inf) / Cmax / half-life: po; for Tmax: read-out: tmax, median", "description": "The present document details the pharmacokinetic (PK) results obtained in a first-in-man study with compound (2) consisting in a single oral ascending dose in healthy male subjects. Four (4) dose levels were investigated (50, 100, 150, and 200 mg).\nAt each dose level, 6 subjects were included and received a single oral dose of compound (2) so that a total of 24 subjects participated to the study and completed it. No study deviation was identified at the time of the PK analysis and thus, all subjects were included in the PK analysis.\nIn this study, plasma levels of compound (1) were measured.\nPK blood sampling was initially defined up to 48 h post-dose.\nBlood samples for assessment of compound (1) plasma levels are scheduled at the following time points: • Day 1 pre-dose, 0.33, 0.66, 1.00, 1.50, 2.00, 2.50, 3.00, 4.00, 6.00, 8.00, 10.00, and 12.00 h post-dose; • Day 2 24.00 and 36.00 h post-dose; • Day 3 48.00 h post-dose; • Day 10 240 h post-dose; • Day 24 576 h post-dose; • Day 45 1080 h post-dose.\nPlasma concentrations were processed throughout the PK software for PK data generation. The PK parameters were calculated by non-compartmental analysis (NCA), using Phoenix® WinNonlin® (Pharsight Corporation) running on a personal computer.\nFor the calculation of the PK parameters and characteristics the following rules were applied: • All the plasma concentrations validated provided to the pharmacokineticist were used for the PK analysis. • The actual blood sampling time points related to the preceding administration was used. • At time points in the lag-time between time zero and the first concentration equal or above limit of quantification (LOQ), concentrations below LOQ were set to zero (0). Concentrations below limit of quantification (BLOQ) between 2 concentrations equal or above LOQ were considered as missing data. Trailing concentrations BLOQ were used in calculations. • If pre-dose concentration was missing, it was arbitrary set to zero (0) assuming that expected results would have been BLOQ.\nFor each subject receiving the active treatment in each cohort, the following PK parameters of compound (1) were to be derived:\nCmax The observed maximum concentration measured in plasma was obtained directly from the concentration-time data.\ntmax The time at which Cmax was apparent, identified by inspection of the plasma drug concentration vs. time data by Phoenix® WinNonlin®.\nAUC0-t The area under the concentration-time curve from time zero (pre-dose) to the time of last quantifiable concentration was calculated using a linear trapezoidal method.\nke The terminal plasma elimination rate-constant was estimated from log-linear regression analysis of the terminal phase of the plasma concentration-time profile. The number of points included in the terminal phase was determined by visual inspection of the semi-log plots of the plasma concentration-time profiles (at least 3). AUC0-∞ The AUC from time 0 to infinity was calculated as AUC0-∞=AUC0-t+AUCt-∞, where AUC0-t is the area under the concentration-time curve from time zero (pre-dose) to the time of last quantifiable concentration calculated using a […] trapezoidal method and AUCt-∞=Ct/ke, where Ct is the measured concentration at time of the last quantifiable concentration t. The extrapolated part of AUC0-∞ must be <20% for the value to be considered as reliable. t1/2 The apparent terminal elimination half-life was calculated as ln 2/ke, where ke is the elimination rate constant during the terminal phase determined by the log-linear regression obtained on at least the 3 last quantifiable concentrations and using actual blood sampling times. The correlation coefficient for the goodness of the fit of the regression line through the data points must be 0.8500 or higher, for the value to be considered reliable."}, "[2]": {"test": "Solubility compared with Compound 2 (statement only)", "assay_type": "physicochemical"}}, "note": "Like-named read-outs stand apart in the source and are kept apart here."}
{"smiles": "O=C(O)[C@H]1O[C@@H](N(c2ccc(OC(F)(F)F)cc2)c2ccc3cccc(Cl)c3n2)[C@H](O)[C@@H](O)[C@@H]1O", "note": "[Compound 1, N-β-glucuronide of 8-chloro-N-(4-(trifluoromethoxy)phenyl)quinolin-2-amine]", "values": [{"measurement": "inhibition at 30 µM", "setting": "HIV-1 strain YU2; Human immunodeficiency virus 1, Primary macrophage, 288 h, primary macrophages, 30 μM, 12 day period, read-out: inhibition of virus replication (p24 antigen in culture supernatant)", "value": "≤ 60", "unit": "%"}, {"measurement": "toxicity", "setting": "HIV-1 strain YU2; macrophages, 1.5 μM up to 30 μM", "value": "low toxicity"}, {"measurement": "compound (1) plasma concentrations versus parent drug", "setting": "[1]; after single oral compound (2), regardless of the dose", "value": "markedly higher"}, {"measurement": "AUC(0-t)", "setting": "[1]; 50 mg, 50 mg compound (2) single oral, N=6, read-out: AUC0-t, GM (geometric mean)", "value": 196, "unit": "µg·h/mL"}, {"measurement": "AUC(0-t)", "setting": "[1]; 50 mg, 50 mg compound (2) single oral, N=6, read-out: AUC0-t, Mean", "value": 209, "unit": "µg·h/mL"}, {"measurement": "AUC(0-inf)", "setting": "[1]; 50 mg, 50 mg compound (2) single oral, N=6, read-out: AUC0-∞, GM (geometric mean)", "value": 198, "unit": "µg·h/mL"}, {"measurement": "AUC(0-inf)", "setting": "[1]; 50 mg, 50 mg compound (2) single oral, N=6, read-out: AUC0-∞, Mean", "value": 212, "unit": "µg·h/mL"}, {"measurement": "Cmax", "setting": "[1]; 50 mg, 50 mg compound (2) single oral, N=6, read-out: Cmax, GM (geometric mean)", "value": 2540, "unit": "ng/mL"}, {"measurement": "Cmax", "setting": "[1]; 50 mg, 50 mg compound (2) single oral, N=6, read-out: Cmax, Mean", "value": 2630, "unit": "ng/mL"}, {"measurement": "half-life", "setting": "[1]; 50 mg, 50 mg compound (2) single oral, N=6, read-out: t1/2, GM (geometric mean) (converted)", "value": 95.7, "unit": "h"}, {"measurement": "half-life", "setting": "[1]; 50 mg, 50 mg compound (2) single oral, N=6, read-out: t1/2, Mean (converted)", "value": 97.3, "unit": "h"}, {"measurement": "AUC(0-t)", "setting": "[1]; 100 mg, 100 mg compound (2) single oral, N=6, read-out: AUC0-t, GM (geometric mean)", "value": 468, "unit": "µg·h/mL"}, {"measurement": "AUC(0-t)", "setting": "[1]; 100 mg, 100 mg compound (2) single oral, N=6, read-out: AUC0-t, Mean", "value": 499, "unit": "µg·h/mL"}, {"measurement": "AUC(0-inf)", "setting": "[1]; 100 mg, 100 mg compound (2) single oral, N=6, read-out: AUC0-∞, GM (geometric mean)", "value": 476, "unit": "µg·h/mL"}, {"measurement": "AUC(0-inf)", "setting": "[1]; 100 mg, 100 mg compound (2) single oral, N=6, read-out: AUC0-∞, Mean", "value": 505, "unit": "µg·h/mL"}, {"measurement": "Cmax", "setting": "[1]; 100 mg, 100 mg compound (2) single oral, N=6, read-out: Cmax, GM (geometric mean)", "value": 5400, "unit": "ng/mL"}, {"measurement": "Cmax", "setting": "[1]; 100 mg, 100 mg compound (2) single oral, N=6, read-out: Cmax, Mean", "value": 5720, "unit": "ng/mL"}, {"measurement": "half-life", "setting": "[1]; 100 mg, 100 mg compound (2) single oral, N=6, read-out: t1/2, GM (geometric mean) (converted)", "value": 111, "unit": "h"}, {"measurement": "half-life", "setting": "[1]; 100 mg, 100 mg compound (2) single oral, N=6, read-out: t1/2, Mean (converted)", "value": 111, "unit": "h"}, {"measurement": "AUC(0-t)", "setting": "[1]; 150 mg, 150 mg compound (2) single oral, N=6, read-out: AUC0-t, GM (geometric mean)", "value": 560, "unit": "µg·h/mL"}, {"measurement": "AUC(0-t)", "setting": "[1]; 150 mg, 150 mg compound (2) single oral, N=6, read-out: AUC0-t, Mean", "value": 659, "unit": "µg·h/mL"}, {"measurement": "AUC(0-inf)", "setting": "[1]; 150 mg, 150 mg compound (2) single oral, N=6, read-out: AUC0-∞, GM (geometric mean)", "value": 563, "unit": "µg·h/mL"}, {"measurement": "AUC(0-inf)", "setting": "[1]; 150 mg, 150 mg compound (2) single oral, N=6, read-out: AUC0-∞, Mean", "value": 664, "unit": "µg·h/mL"}, {"measurement": "Cmax", "setting": "[1]; 150 mg, 150 mg compound (2) single oral, N=6, read-out: Cmax, GM (geometric mean)", "value": 8270, "unit": "ng/mL"}, {"measurement": "Cmax", "setting": "[1]; 150 mg, 150 mg compound (2) single oral, N=6, read-out: Cmax, Mean", "value": 9240, "unit": "ng/mL"}, {"measurement": "half-life", "setting": "[1]; 150 mg, 150 mg compound (2) single oral, N=6, read-out: t1/2, GM (geometric mean) (converted)", "value": 95.7, "unit": "h"}, {"measurement": "half-life", "setting": "[1]; 150 mg, 150 mg compound (2) single oral, N=6, read-out: t1/2, Mean (converted)", "value": 99.2, "unit": "h"}, {"measurement": "AUC(0-t)", "setting": "[1]; 200 mg, 200 mg compound (2) single oral, N=6, read-out: AUC0-t, GM (geometric mean)", "value": 436, "unit": "µg·h/mL"}, {"measurement": "AUC(0-t)", "setting": "[1]; 200 mg, 200 mg compound (2) single oral, N=6, read-out: AUC0-t, Mean", "value": 559, "unit": "µg·h/mL"}, {"measurement": "AUC(0-inf)", "setting": "[1]; 200 mg, 200 mg compound (2) single oral, N=6, read-out: AUC0-∞, GM (geometric mean)", "value": 438, "unit": "µg·h/mL"}, {"measurement": "AUC(0-inf)", "setting": "[1]; 200 mg, 200 mg compound (2) single oral, N=6, read-out: AUC0-∞, Mean", "value": 560, "unit": "µg·h/mL"}, {"measurement": "Cmax", "setting": "[1]; 200 mg, 200 mg compound (2) single oral, N=6, read-out: Cmax, GM (geometric mean)", "value": 5900, "unit": "ng/mL"}, {"measurement": "Cmax", "setting": "[1]; 200 mg, 200 mg compound (2) single oral, N=6, read-out: Cmax, Mean", "value": 7910, "unit": "ng/mL"}, {"measurement": "half-life", "setting": "[1]; 200 mg, 200 mg compound (2) single oral, N=6, read-out: t1/2, GM (geometric mean) (converted)", "value": 87.8, "unit": "h"}, {"measurement": "half-life", "setting": "[1]; 200 mg, 200 mg compound (2) single oral, N=6, read-out: t1/2, Mean (converted)", "value": 89.5, "unit": "h"}, {"measurement": "half-life", "setting": "[1]; healthy male subjects, single oral 50 to 200 mg compound (2), read-out: elimination half life (t1/2) (converted)", "value": "~100", "unit": "h"}, {"measurement": "Tmax", "setting": "[1]; 50 mg compound (2) single oral, N=6", "value": 4, "unit": "h"}, {"measurement": "Tmax", "setting": "[1]; 100 mg compound (2) single oral, N=6", "value": 4, "unit": "h"}, {"measurement": "Tmax", "setting": "[1]; 150 mg compound (2) single oral, N=6", "value": 4, "unit": "h"}, {"measurement": "Tmax", "setting": "[1]; 200 mg compound (2) single oral, N=6", "value": 6, "unit": "h"}, {"measurement": "time of first quantifiable compound (1) concentration", "setting": "[1]; post-dose, 20 subjects out of 24", "value": "~40", "unit": "min"}, {"measurement": "solubility relative to Compound 2", "setting": "[2]", "value": "more soluble"}]}
